Test results taken from patent US8673965B2, “Composition for the treatment of arthritis containing a dibenzo-p-dioxin derivative as the active ingredient” (Livechem, Inc., priority 2008, dated 2014).
Values belong to the compound of their own block, whether it stands above or below them.

Columns and labels:
AP-1 = experiment: AP-1-luciferase reporter in IL-1α-stimulated rabbit articular cartilage tissue; type: cell-based; conditions: 10 μg/mL, 5 ng/mL rhIL-1α; for inhibition at 10 µg/mL: Oryctolagus cuniculus, AP1, luciferase activity
Method: (§1) A five-week-old rabbit was killed, from the hock joint of which the articular cartilage was then taken. The articular surface (200˜220 mg/joint) was placed in a complete medium (DMEM, supplemented with heat inactivated 5% FBS; penicillin 100 U/mL; streptomycin 100 μg/mL) under sterile conditions. It was washed three or four times and then incubated at 37° C. for about 1˜2 days under sterile conditions and under 5% CO2/95% air conditions, after which AP-1-luciferase or NFkB-luciferase reporter plasmid DNA (each 0.5 μg: Stratagene) was transfected into the incubated tissue using a Lipofectamin transfection reagent (Invitrogen, Carlsbad, Calif., U.S.A.). After 24 hours, the complete medium was exchanged with a basic medium (DMEM, supplemented with heat inactivated 1% FBS, 10 mM HEPES, penicillin 100 U/mL, streptomycin 100 μg/mL). […] After 1 hour, the culture medium of each group was treated with 5 ng/mL rhIL-1α (R&D systems, Minneapolis, USA). Then, the culture medium was incubated at […] under 5% CO2/95% air conditions for 60 hours, and then treated with a lysis buffer (0.1M potassium phosphate buffer, pH 7.8/1% Triton X-100/1 mM DTT/2 mM EDTA), and the luciferase activity in the culture medium was measured using a luminometer (Monolight 2010).

NF-kB = experiment: NFkB-luciferase reporter in IL-1α-stimulated rabbit articular cartilage tissue; type: cell-based; conditions: 10 μg/mL, 5 ng/mL rhIL-1α
Method: as §1

arthritis induced rabbit = experiment: External-use compositions in collagenase arthritis induced rabbit; type: in vivo; conditions: for Heating score / Limping score / Reddening score / Swelling score: score 0-3; for Max. Effect during Treatment: (total score 7th day − 14th day)/7th day; for Total Treatment Effect: (total score 7th day − 21st day)/7th day; for Healing Effect upon Discontinuation of Treatment: (total score 14th day − 21st day)/14th day
Method: The composition of a carrier used to absorb the active ingredient into the skin was made referring to Bookman et al (Can. Med. Assoc. J. 171(4) 333-338 (2004)).
In order to induce arthritis in the rabbit, six test groups were set up, and five rabbits were randomly assigned into each group. A collagenase solution (4 mg/mL, saline) was filtered with a 0.22 μm membrane. 2.5˜3.0 kg weighed rabbits assigned into six test groups were anesthetized with tiletamine-zolazepam (Zoletil 50, Virbac, France). The region around the right knee joint of each rabbit was shaved and disinfected, after which the articular cavity thereof was injected with 0.25 mL of saline in one test group and 0.25 mL of the collagenase solution in the other five test groups (Choi, et al. Osteoarthritis and Cartilage 10, 471-478 (2002)). […] This model has been adopted because it is similar to the degeneration of the cartilage tissue in the human degenerative arthritis.
From the 7th day, 0.3 mL of each of the external-use compositions of Table 3 was sufficiently applied two times per day for 7 days to the affected part of the five test groups treated with the collagenase solution, and no treatment was performed for the following 7 days in order to evaluate the fundamental healing effects. The swelling, reddening, heat and limping of the articular part were quantitatively evaluated on the day (0th day) immediately before collagenase treatment, the 7th day, the 14th day and the 21st day, using the evaluation criteria comprising 0 (normal), 1 (low), 2 (middle), 3 (high). In order to objectively evaluate the effects of respective treatment solutions, the total score at each evaluation was compared, and “maximum effect during treatment”, “total treatment effect”, “healing effect upon discontinuation of treatment” were calculated by the following equations.
(1) Maximum effect during treatment=(total score on 7th day−total score on 14th day)/total score on 7th day,
(2) Total treatment effect=(total score on 7th day−total score on 21st day)/total score on 7th day,
(3) Healing effect upon discontinuation of treatment=(total score on 14th day−total score on 21st day)/total score on 14th day.

[1] = 7th Day (before treatment), 1.5% active, 0.3 mL twice daily topical
[2] = 14th Day (end of 7-day treatment)
[3] = 21st Day (7 days after discontinuation)

SMILES: CC(=O)Oc1ccccc1C(=O)O [Aspirin, aspirin]
inhibition at 10 µg/mL (AP-1): 46%
NF-kB Activity Inhibition (%) (NF-kB): 48%
Heating score (arthritis induced rabbit; 7th Day (before treatment)): 3.0 ± 0.00
Limping score (arthritis induced rabbit; 7th Day (before treatment)): 2.8 ± 0.45
Reddening score (arthritis induced rabbit; 7th Day (before treatment)): 2.8 ± 0.45
Swelling score (arthritis induced rabbit; [1]): 3.0 ± 0.00
Total Score (arthritis induced rabbit; 14th Day): 6.0 ± 0.71
Swelling score (arthritis induced rabbit; [2]): 1.6 ± 0.55
Heating score (arthritis induced rabbit; 14th Day): 1.4 ± 0.55
Limping score (arthritis induced rabbit; 14th Day): 1.4 ± 0.55
Reddening score (arthritis induced rabbit; 14th Day): 1.6 ± 0.55
Total Score (arthritis induced rabbit; 21st Day): 5.0 ± 1.0
Swelling score (arthritis induced rabbit; [3]): 1.2 ± 0.45
Heating score (arthritis induced rabbit; 21st Day): 1.2 ± 0.45
Limping score (arthritis induced rabbit; 21st Day): 1.2 ± 0.45
Reddening score (arthritis induced rabbit; 21st Day): 1.4 ± 0.55
Max. Effect during Treatment (arthritis induced rabbit): 48.3%
Total Treatment Effect (arthritis induced rabbit): 56.9%
Healing Effect upon Discontinuation of Treatment (arthritis induced rabbit): 16.7%

SMILES: COc1ccc2c(c1)c(CC(=O)O)c(C)n2C(=O)c1ccc(Cl)cc1 [Indomethacin, indomethacin]
inhibition at 10 µg/mL (AP-1): 34%

AP-1 Activity Inhibition (%) (AP-1): 34%
NF-kB Activity Inhibition (%) (NF-kB): 32%
SMILES: O=C(O)Cc1ccccc1Nc1c(Cl)cccc1Cl [Dichlofenac, dichlofenac]

SMILES: CC(C)Cc1ccc(C(C)C(=O)O)cc1 (stereo not shown) [Ibuprofen, ibuprofen]
inhibition at 10 µg/mL (AP-1): 27%
NF-kB Activity Inhibition (%) (NF-kB): 23%

SMILES: Cc1ccc(-c2cc(C(F)(F)F)nn2-c2ccc(S(N)(=O)=O)cc2)cc1 [Celecoxib, celecoxib]
inhibition at 10 µg/mL (AP-1): 23%
NF-kB Activity Inhibition (%) (NF-kB): 10%

SMILES: CC(C(=O)O)c1cccc(C(=O)c2ccccc2)c1 (stereo not shown) [Ketoprofen, ketoprofen]
inhibition at 10 µg/mL (AP-1): 22%
NF-kB Activity Inhibition (%) (NF-kB): 12%

SMILES: O=C([O-])Cc1ccccc1Nc1c(Cl)cccc1Cl.[Na+] [Dichlofenac Sodium]
Total Score (arthritis induced rabbit; 7th Day (before treatment)): 11.4 ± 1.34
Heating score (arthritis induced rabbit; 7th Day (before treatment)): 2.8 ± 0.45
Limping score (arthritis induced rabbit; 7th Day (before treatment)): 3.0 ± 0.00
Reddening score (arthritis induced rabbit; 7th Day (before treatment)): 2.8 ± 0.45
Swelling score (arthritis induced rabbit; [1]): 2.8 ± 0.45
Total Score (arthritis induced rabbit; 14th Day): 5.8 ± 1.3
Swelling score (arthritis induced rabbit; [2]): 1.4 ± 0.55
Heating score (arthritis induced rabbit; 14th Day): 1.4 ± 0.55
Limping score (arthritis induced rabbit; 14th Day): 1.6 ± 0.55
Reddening score (arthritis induced rabbit; 14th Day): 1.4 ± 0.55
Total Score (arthritis induced rabbit; 21st Day): 5.4 ± 0.55
Swelling score (arthritis induced rabbit; [3]): 1.4 ± 0.55
Heating score (arthritis induced rabbit; 21st Day): 1.2 ± 0.45
Limping score (arthritis induced rabbit; 21st Day): 1.4 ± 0.55
Reddening score (arthritis induced rabbit; 21st Day): 1.4 ± 0.55
Max. Effect during Treatment (arthritis induced rabbit): 49.1%
Total Treatment Effect (arthritis induced rabbit): 52.6%
Healing Effect upon Discontinuation of Treatment (arthritis induced rabbit): 6.9%
